The test system of experiment [1] is αD11 antibody. Put plainly: Phage ELISA assay. The following applies: phages selected against αD11. It is filed as binding. The method, then: Phage ELISA assay. Ninety-six well plates were coated with 100 μl of rat anti-pill monoclonal antibody (57D1, gift by P. Delmastro) diluted in coating buffer (1 μg/ml 50 mM carbonate buffer pH 9.6) and incubated overnight at 4° C. Palts were washed in PBST and blocked in 5% milk/PBST for 1 h at 37° C. on a rocking platform. After 1 brief wash, a mixture of cleared phage supernatant (50 μl) and 50 μl of 5% milk/PBST was added and incubated for 1 h at 37° C. The plates were washed and 100 μl of αD11 antibody dilution (1 μg/ml in 5% milk/PBS) were added and left overnight at 4° C. After washing, an alkaline phosphatase conjugated anti-mouse antibody was added and left at 4° C. for 4 hrs. The reaction was developed by adding 200 μl of the substrate solution (10% dietanolamine, 5 mM MgCl2 pH 9.6) for 2 min followed by an incubation at 37° C. for 1 h in 100 μl of developing solution (1 mg/ml NTB in 10% dietanolamine, 5 mM MgCl2, pH 9.6).
Positive phage clones were analyzed by the single strand DNA sequencing. The positive phage clones were sequenced and re-tested using dot blot experiments towards the αD11 antibody. At least twenty were analyzed.
A general note: An ELISA detects its analyte on a solid surface through an enzyme-linked reagent.

For experiment [2], the system named is anti-NGF mice. Put plainly: Number of ChAT-positive neurons in the basal forebrain (immunohistochemistry, stereology). Format: in vivo, mouse. Here is the method: (§1) Peptide 18 treatment. Prior to the injections, phages carrying the peptide 18 or a peptide raised against NT-3 (negative control) were amplified by infecting 2.5 ml of an overnight colture of DH5alpha F′ bacteria with 5 ml of phage supernatant in 1 liter of 2TY. After an overnight incubation at 30° C., bacteria were removed by centrifugation at 6000 rpm for 20 min at 4° C. Phage particles were precipitated by adding 1 volume of PEG/NaCl (20% PEG6000, 2.5 M NaCl) to 5 volumes of the supernatant. After mixing, the solution was left stand overnight at 4° C. and spinned at […] for 30 min. The pellet was resuspended in 40 ml of […], kept at 65° C. and then spun for 5 min at 11000 rpm.
One volume of PEG/NaCl was mixed to 5 volumes of the phage containing supernatant and incubated for 2 hrs at 4° C. After spinning at 11000 rpm for 5 min., the pellet was resuspended in PBS, spun again to remove cell debris and filtered through a 0.22 μm sterile filter. The phage suspension was then titred by infecting 100 μl of an overnight colture of DH5α F′, mixed with LB top agar and plated on LB plates. Phages carrying the carrying the peptide 18 or a peptide binder of anti-NT-3 (10^9–10^12 pfu/μl) were injected in both lateral ventricles. Phages were injected at postnatal day 53 (P53) and mice were killed 1 week after the injection. For the injection, mice were anaesthetised with 2,2,2-Tribromoethanol (0.2 ml/10 g body weight of a 1.2% solution). One μl of phage suspension was injected using a 17 gauge needle connected to a 10 μl Hamilton by a polyethylene cannula, 1 mm lateral and 1 mm anterior to Bregma. After the injection, animals were treated with ampicillin (1 mg/kg) every day, in order to prevent any bacterial infection. Experiment were performed three times for a total number of animals equal to 14 for each group of treatment.
L-thyroxine treatment. […]
Quantitative stereology. The volume of basal forebrain and the number of BFCNs was evaluated in 9 anti-NGF transgenic mice and 8 transgenic controls by using a stereological approach (Ruberti, 2000).

In experiment [3] the test system is anti-NGF mice. Put plainly: AT8 (phosphorylated tau) immunohistochemistry in entorhinal cortex. Format: in vivo, mouse. Here is the method:
as §1
One volume of PEG/NaCl was mixed to 5 volumes of the phage containing supernatant and incubated for 2 hrs at 4° C. After spinning at 11000 rpm for 5 min., the pellet was resuspended in PBS, spun again to remove cell debris and filtered through a 0.22 μm sterile filter. The phage suspension was then titred by infecting 100 μl of an overnight colture of DH5α F′, mixed with LB top agar and plated on LB plates. Phages carrying the carrying the peptide 18 or a peptide binder of anti-NT-3 (10^9–10^12 pfu/μl) were injected in both lateral ventricles. Phages were injected at postnatal day 53 (P53) and mice were killed 1 week after the injection. […]

Experiment [4] relates to free NGF. The experiment can be described thus: Determination of free NGF by ELISA. Format: in vivo, mouse. The method, then:
Determination of free NGF. The levels of free NGF (i.e. NGF not bound to the transgenic antibodies) in the different tissues was determined by an ELISA assay. This assay exploits the property of αD11 antibody to recognize NGF in a two-site ELISA format 16. Samples of blood serum or of tissue extracts (derived as in Molnar et al., 1998) were added to wells coated with mAb αD11 (coating concentration of […]). After incubation for 2 hours at r.t. and extensive washing with PBS-0.05% Tween 20, followed by PBS, free NGF, not engaged with transgenic αD11, was detected using an affinity-purified rabbit anti-NGF polyclonal antiserum.

In experiment [5] the test system is visual cortex slices of anti-NGF mice. The experiment can be described thus: Long Term Potentiation (LTP) in visual cortex slices, electrophysiological recordings. On the set-up: species or system mouse. The following applies: 12 µg/animal/day for 4 weeks. Here is the method:
Visual cortex slices preparation and electrophysiological recordings. Postsynaptic field potentials were recorded in […] in vitro slices containing visual cortex, following previously described methods (Kirkwood and Bear, 1994). Anti-NGF and transgenic control mice were deeply anesthetized with urethane and then decapitated. The brain was rapidly removed and visual cortex slices (400 μm) prepared and superfused in a submerged recording chamber at 33° C. with gassed artificial cerebrospinal fluid (aCSF) at a rate of 4 ml/min.
The amplitude of the maximum negative field potential in layer 2/3 was used as a measure of the evoked population excitatory current. LTP was induced by 3 trains of high frequency stimulation (HFS, 100 Hz, 1 s). Experiments were performed at different postnatal ages 6 months, when the functional maturation of the visual cortex is completed. Acetylcholine dependence of LTP was investigated by locally delivering through the recording pipette. […] The magnitude of both LTP was measured starting 30 min after the end of the corresponding conditioning protocol. Data for each experimental group were pooled and expressed as percentage change from control baseline, PCCB±S.E.M. Statistical comparison was done by applying a t-test and Mann-Whitney Rank Sum Test between baseline and LTP mean values.

In experiment [6] the test system is gastrocnemius muscle of anti-NGF mice. The experiment can be described thus: Reversibility of the muscular dystrophy in anti-NGF mice by NGF local administration. Format: in vivo, mouse. The following applies: 45 day old anti-NGF mice, 7, 15 and 30 days after injection. Here is the method: All the experiments were carried out on 45 day old mice, when the serum level of the anti-NGF antibody is still not at the highest level (observed 60 days after the birth). The NGF was administered locally by different methods: (a) by intramuscular injection of NGF, (b) by intramuscular injection of a viral recombinant vector (adenovirus) encoding for NGF cDNA or (c) by the implant of NGF secreting fibroblasts. All the administration routes included the injection or implant in the gastrocnemius muscle, one of the skeletal muscles affected by muscular dystrophy. The injections and implants were carried out on the right leg, while the gastrocnemius muscle of the left leg was used as control. A) NGF was injected as pellet, consisting of diazocellulose mixed NGF in borate buffer at pH 8.0 for 72 hours and following neutralisation by glycine saturated solution (Hendry, 1982). This method allows the exact localisation and slow release of this neurotrophin. Different NGF concentrations were used, comprised in the range from […] and 2 mg for each animal. […]
To verify the effect of the NGF administration the animals were sacrificed 7, 15 and 30 days after the injection. The injected and contralateral muscles were collected and analysed by histological and immunohistochemical techniques to verify the attenuation of the dystrophy and the restoration of usual innervation.

For experiment [7], the system named is anti-NGF mice. Put plainly: Restoration of the cholinergic phenotype in the basal forebrain of anti-NGF mice by NGF (minipump or NGF-secreting fibroblasts, lateral ventricle). The following applies: 2 months-old anti-NGF mice; NGF into lateral ventricle. It is filed as in vivo, mouse. Here is the method: The restoration of the cholinergic phenotype in the basal forebrain was achieved by two different approaches. In a first set of experiments, NGF was delivered using slow releasing minipumps (Alzet, USA) A rubber capillary tube was inserted in the lateral ventricle and then connected by means of an osmotic minipump to a <> of the subcutaneous layer. This pump was filled by NGF (30–100 μg) diluted with Ringer-Locke physiological saline. Experiments were performed in 2 months-old transgenic mice and controls.
In another set of experiments, animals of the same age of previous ones were treated by an implant of fibroblasts genetically modified to secrete NGF. The fibroblasts were injected in the lateral ventricle at a 2×10^5 cells/μl concentration. The injection volume was 1.5 μl/animal. This second method allowed to verify, by ELISA, the constancy of NGF production over 4 weeks after the implantation.

Where [8] appears, read: phage injected intraventricularly.
The mark [9] stands for this setting: intraperitoneal, 10 μg daily from P45 to P62.
Setting [10] is: intraperitoneal, daily from P45 to P62.

“Also recorded” adds a separate entry of the source.

Turning to RGSRHDL [peptide 18], the “binding activity of phage clone to αD11” value in experiment [1] was “stronger binding activity”. In addition, in experiment [2] (phage injected in both lateral ventricles at P53, killed 1 week later), the “number of ChAT positive neurons in the basal forebrain” value is on record as “restored”. Also, the “AT8 labeling (hyperphosphorylated tau) in the somatic compartment of neurons of the entorhinal cortex” value in experiment [3] (phage injected intraventricularly at P53) is given as “not paralleled by the disappearance of AT8 labeling; also recorded: decreases the expression in the soma”. In experiment [4] (setting [8]), the “free NGF in blood serum and submandibular gland” value is listed as “equal to animals treated with the non related peptide binder of anti-NT-3”; the “free NGF in brain” value is reported as “increase only at the level basal forebrain”.

Turning to `N[C@@H](Cc1cc(I)c(Oc2cc(I)c(O)c(I)c2)c(I)c1)C(=O)O` [LT4, L-thyroxine, reference compound], in experiment [2] (setting [9]), the “number of ChAT-positive neurons in the basal forebrain, compared with transgenic control” value was “equal to that observed in transgenic control animals” and the “number of ChAT-positive neurons, increase over not-treated or vehicle-treated anti-NGF mice” value amounted to 40%. In experiment [3] (setting [10]), the “AT8 labeling in the somatic compartment of neurons of the entorhinal cortex” value is “disappearance of AT8 labeling”. Moreover, in experiment [4] (setting [10]), the “free NGF in brain, blood serum and submandibular gland, compared with transgenic control” value is “reached almost the levels detectable in transgenic control animals”; the “free NGF in brain, blood serum and submandibular gland, compared with vehicle” value is “higher than that detected in animals treated with vehicle”. For the same compound, the “rescue of synaptic plasticity (LTP)” value in experiment [5] is “only a mild rescue”.

For “NGF: Nerve Growth Factor, neurotrophin, given as pellet, adenoviral cDNA vector, minipump infusion or via NGF-secreting fibroblasts”, in experiment [6], the “muscle fibre morphology and cholinergic and peptidergic innervation” value was “re-assumed an usual appearance”. For the same compound, the “ChAT expression in nuclei of the basal forebrain and behaviour (cholinergic phenotype)” value in experiment [7] is reported as “phenotype reversibility to be observed”.

These data come from patent US7273964B1, “Non-human transgenic animals for the study of neurodegenerative syndromes” (Scuola Internazionale Superiore Di Studi Avanzati, priority 1999, dated 2007).
